Measured values published in ChEMBL document CHEMBL1136926 (J Med Chem, 2009).
Positions of bridges follow the written chain, without caps; N, C: chain ends. Non-standard residues stand in square brackets, D forms with d. Residues, ends and D or L forms follow the SMILES beside them. Phe(4-NO2) = N[C@@H](Cc1ccc([N+](=O)[O-])cc1)C(=O)O; Phe(4-Cl) = N[C@@H](Cc1ccc(Cl)cc1)C(=O)O; 1Nal = N[C@@H](Cc1cccc2ccccc12)C(=O)O; 2Nal = N[C@@H](Cc1ccc2ccccc2c1)C(=O)O; Tic = O=C(O)[C@@H]1Cc2ccccc2CN1; Pen = CC(C)(S)[C@H](N)C(=O)O

Tests used:
[1] = biological target: T1, Urotensin-2 receptor (Rattus norvegicus) (UniProt P49684); experiment: Antagonist activity at UT2 receptor in Albino rat aorta assessed as inhibition of […] aortic contraction; format: functional, tissue-based
T1 sequence (whole entry): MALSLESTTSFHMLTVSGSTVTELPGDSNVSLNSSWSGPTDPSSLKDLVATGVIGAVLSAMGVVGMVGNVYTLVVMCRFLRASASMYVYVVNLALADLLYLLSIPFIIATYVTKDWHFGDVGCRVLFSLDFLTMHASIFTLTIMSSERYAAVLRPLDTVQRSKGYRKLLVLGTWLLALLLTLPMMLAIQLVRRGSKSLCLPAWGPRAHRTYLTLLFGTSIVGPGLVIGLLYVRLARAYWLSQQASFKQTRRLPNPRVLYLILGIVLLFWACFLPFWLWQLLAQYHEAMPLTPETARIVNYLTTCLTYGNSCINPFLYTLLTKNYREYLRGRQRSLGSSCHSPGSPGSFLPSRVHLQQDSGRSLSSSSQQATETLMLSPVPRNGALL

Urotensin-2 receptor [2] = biological target: T2, Urotensin-2 receptor (Rattus norvegicus, UniProt P49684); experiment: Agonist activity at UT2 receptor in Albino rat aorta assessed as induction of aortic contraction
T2 sequence (P49684 whole entry): T1 sequence (whole entry)

Urotensin-2 receptor [3] = biological target: T3, Urotensin-2 receptor (Homo sapiens, UniProt Q9UKP6); experiment: Displacement of [125I]urotensin-2 from human UT2 receptor expressed in CHO-K1 cells by liquid scintillation counting; format: cell-based
T3 sequence (Q9UKP6 whole entry): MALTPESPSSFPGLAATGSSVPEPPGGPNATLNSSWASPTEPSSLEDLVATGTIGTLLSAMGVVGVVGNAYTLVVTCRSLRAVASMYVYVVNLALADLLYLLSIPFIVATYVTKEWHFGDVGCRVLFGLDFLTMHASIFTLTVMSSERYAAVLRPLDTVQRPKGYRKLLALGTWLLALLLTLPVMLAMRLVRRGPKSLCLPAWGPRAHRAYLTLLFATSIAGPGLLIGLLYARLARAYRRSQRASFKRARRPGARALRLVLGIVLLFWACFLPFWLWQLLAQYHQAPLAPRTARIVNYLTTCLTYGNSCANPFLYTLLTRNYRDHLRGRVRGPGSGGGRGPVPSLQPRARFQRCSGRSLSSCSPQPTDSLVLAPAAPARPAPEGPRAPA

pKb [1]	EC50 (Urotensin-2 receptor [2])	Ki (Urotensin-2 receptor [3])	SMILES
–	1.35 nM	2.63 nM	CC(C)[C@H](NC(=O)[C@@H]1CSSC(C)(C)[C@H](NC(=O)[C@@H]2Cc3ccccc3CN2)C(=O)N[C@@H](Cc2ccccc2)C(=O)N[C@@H](Cc2c[nH]c3ccccc23)C(=O)N[C@@H](CCCCN)C(=O)N[C@@H](Cc2ccc(O)cc2)C(=O)N1)C(=O)O (H-[Tic][Pen]FWKYCV-OH; disulfide 2-7)
–	–	9.33 nM	CC(C)[C@H](NC(=O)[C@@H]1CSSC(C)(C)[C@H](NC(=O)[C@@H]2Cc3ccccc3CN2)C(=O)N[C@@H](Cc2ccccc2)C(=O)N[C@H](Cc2c[nH]c3ccccc23)C(=O)N[C@@H](CCCN)C(=O)N[C@@H](Cc2ccc(O)cc2)C(=O)N1)C(=O)O
–	–	19.5 nM	CC(C)[C@H](NC(=O)[C@@H]1CSSC(C)(C)[C@H](NC(=O)[C@@H](N)Cc2ccccc2)C(=O)N[C@@H](Cc2ccccc2)C(=O)N[C@H](Cc2c[nH]c3ccccc23)C(=O)N[C@@H](CCCN)C(=O)N[C@@H](Cc2ccc(O)cc2)C(=O)N1)C(=O)O
8.94	–	–	CC(C)[C@H](NC(=O)[C@@H]1CSSC(C)(C)[C@@H](NC(=O)[C@@H]2Cc3ccccc3CN2)C(=O)N[C@@H](Cc2ccccc2)C(=O)N[C@H](Cc2c[nH]c3ccccc23)C(=O)N[C@@H](CCCN)C(=O)N[C@@H](Cc2ccc(O)cc2)C(=O)N1)C(=O)O
8.68	–	–	CC(C)[C@H](NC(=O)[C@@H]1CSSC(C)(C)[C@@H](NC(=O)[C@@H](N)Cc2ccccc2)C(=O)N[C@@H](Cc2ccccc2)C(=O)N[C@H](Cc2c[nH]c3ccccc23)C(=O)N[C@@H](CCCN)C(=O)N[C@@H](Cc2ccc(O)cc2)C(=O)N1)C(=O)O
–	0.661 nM	0.282 nM	CC(C)[C@H](NC(=O)[C@@H]1CSSC(C)(C)[C@H](NC(=O)[C@@H](N)Cc2ccccc2)C(=O)N[C@@H](Cc2ccccc2)C(=O)N[C@@H](Cc2c[nH]c3ccccc23)C(=O)N[C@@H](CCCCN)C(=O)N[C@@H](Cc2ccc(O)cc2)C(=O)N1)C(=O)O (H-F[Pen]FWKYCV-OH; disulfide 2-7)
–	–	9.55 nM	CC(C)[C@H](NC(=O)[C@@H]1CSSC(C)(C)[C@H](NC(=O)[C@@H](N)Cc2ccc(Cl)cc2)C(=O)N[C@@H](Cc2ccccc2)C(=O)N[C@H](Cc2c[nH]c3ccccc23)C(=O)N[C@@H](CCCN)C(=O)N[C@@H](Cc2ccc(O)cc2)C(=O)N1)C(=O)O
–	9.12 nM	0.794 nM	CC(C)[C@H](NC(=O)[C@@H]1CSSC(C)(C)[C@H](NC(=O)[C@H](C)N)C(=O)N[C@@H](Cc2ccccc2)C(=O)N[C@@H](Cc2c[nH]c3ccccc23)C(=O)N[C@@H](CCCCN)C(=O)N[C@@H](Cc2ccc(O)cc2)C(=O)N1)C(=O)O
7.84	–	–	CC(C)[C@H](NC(=O)[C@@H]1CSSC(C)(C)[C@@H](NC(=O)[C@H](C)N)C(=O)N[C@@H](Cc2ccccc2)C(=O)N[C@H](Cc2c[nH]c3ccccc23)C(=O)N[C@@H](CCCN)C(=O)N[C@@H](Cc2ccc(O)cc2)C(=O)N1)C(=O)O
–	–	1.66 nM	CC(C)[C@H](NC(=O)[C@@H]1CSSC(C)(C)[C@H](NC(=O)[C@H](C)N)C(=O)N[C@@H](Cc2ccccc2)C(=O)N[C@H](Cc2c[nH]c3ccccc23)C(=O)N[C@@H](CCCN)C(=O)N[C@@H](Cc2ccc(O)cc2)C(=O)N1)C(=O)O

The remaining lines, values behind:

SMILES	pKb [1]	EC50 (Urotensin-2 receptor [2])	Ki (Urotensin-2 receptor [3])
CC(C)[C@H](NC(=O)[C@@H]1CSSC(C)(C)[C@@H](NC(=O)[C@@H](N)Cc2cccc3ccccc23)C(=O)N[C@@H](Cc2ccccc2)C(=O)N[C@H](Cc2c[nH]c3ccccc23)C(=O)N[C@@H](CCCN)C(=O)N[C@@H](Cc2ccc(O)cc2)C(=O)N1)C(=O)O	8.5	–	–
CC(C)[C@H](NC(=O)[C@@H]1CSSC(C)(C)[C@@H](NC(=O)[C@@H](N)Cc2ccc3ccccc3c2)C(=O)N[C@@H](Cc2ccccc2)C(=O)N[C@H](Cc2c[nH]c3ccccc23)C(=O)N[C@@H](CCCN)C(=O)N[C@@H](Cc2ccc(O)cc2)C(=O)N1)C(=O)O	7.89	–	–
CC(C)[C@H](NC(=O)[C@@H]1CSSC[C@H](NC(=O)[C@@H](N)CC(=O)O)C(=O)N[C@@H](Cc2ccccc2)C(=O)N[C@@H](Cc2c[nH]c3ccccc23)C(=O)N[C@@H](CCCCN)C(=O)N[C@@H](Cc2ccc(O)cc2)C(=O)N1)C(=O)O (H-DCFWKYCV-OH; disulfide 2-7)	–	2.51 nM	–
CC(C)[C@H](NC(=O)[C@@H]1CSSC(C)(C)[C@@H](NC(=O)[C@@H](N)Cc2ccc(Cl)cc2)C(=O)N[C@@H](Cc2ccccc2)C(=O)N[C@H](Cc2c[nH]c3ccccc23)C(=O)N[C@@H](CCCN)C(=O)N[C@@H](Cc2ccc(O)cc2)C(=O)N1)C(=O)O	7.85	–	–
CC(C)[C@H](NC(=O)[C@@H]1CSSC(C)(C)[C@H](NC(=O)[C@@H](N)CCCCN)C(=O)N[C@@H](Cc2ccccc2)C(=O)N[C@@H](Cc2c[nH]c3ccccc23)C(=O)N[C@@H](CCCCN)C(=O)N[C@@H](Cc2ccc(O)cc2)C(=O)N1)C(=O)O (H-K[Pen]FWKYCV-OH; disulfide 2-7)	–	6.03 nM	9.33 nM
CC(C)[C@H](NC(=O)[C@@H]1CSSC(C)(C)[C@H](NC(=O)[C@@H](N)Cc2ccc([N+](=O)[O-])cc2)C(=O)N[C@@H](Cc2ccccc2)C(=O)N[C@H](Cc2c[nH]c3ccccc23)C(=O)N[C@@H](CCCN)C(=O)N[C@@H](Cc2ccc(O)cc2)C(=O)N1)C(=O)O	–	–	15.8 nM
CC(C)[C@H](NC(=O)[C@@H]1CSSC(C)(C)[C@@H](NC(=O)[C@@H](N)CCCCN)C(=O)N[C@@H](Cc2ccccc2)C(=O)N[C@H](Cc2c[nH]c3ccccc23)C(=O)N[C@@H](CCCN)C(=O)N[C@@H](Cc2ccc(O)cc2)C(=O)N1)C(=O)O	7.49	–	–
CC(C)[C@H](NC(=O)[C@@H]1CSSC(C)(C)[C@H](NC(=O)[C@@H](N)Cc2ccc3ccccc3c2)C(=O)N[C@@H](Cc2ccccc2)C(=O)N[C@@H](Cc2c[nH]c3ccccc23)C(=O)N[C@@H](CCCCN)C(=O)N[C@@H](Cc2ccc(O)cc2)C(=O)N1)C(=O)O (H-[2Nal][Pen]FWKYCV-OH; disulfide 2-7)	–	5.25 nM	6.46 nM
CC(C)[C@H](NC(=O)[C@@H]1CSSC(C)(C)[C@H](NC(=O)[C@@H](N)Cc2cccc3ccccc23)C(=O)N[C@@H](Cc2ccccc2)C(=O)N[C@H](Cc2c[nH]c3ccccc23)C(=O)N[C@@H](CCCN)C(=O)N[C@@H](Cc2ccc(O)cc2)C(=O)N1)C(=O)O	–	–	3.89 nM
CC(C)[C@H](NC(=O)[C@@H]1CSSC(C)(C)[C@H](NC(=O)[C@@H](N)Cc2ccc(Cl)cc2)C(=O)N[C@@H](Cc2ccccc2)C(=O)N[C@@H](Cc2c[nH]c3ccccc23)C(=O)N[C@@H](CCCCN)C(=O)N[C@@H](Cc2ccc(O)cc2)C(=O)N1)C(=O)O (H-[Phe(4-Cl)][Pen]FWKYCV-OH; disulfide 2-7)	–	1.38 nM	0.891 nM
CC(C)[C@H](NC(=O)[C@@H]1CSSC(C)(C)[C@@H](NC(=O)[C@@H](N)Cc2ccc([N+](=O)[O-])cc2)C(=O)N[C@@H](Cc2ccccc2)C(=O)N[C@H](Cc2c[nH]c3ccccc23)C(=O)N[C@@H](CCCN)C(=O)N[C@@H](Cc2ccc(O)cc2)C(=O)N1)C(=O)O	7.9	–	–
CC(C)[C@H](NC(=O)[C@@H]1CSSC[C@H](NC(=O)[C@H](CC(=O)O)NC(=O)[C@@H]2CCCN2C(=O)[C@@H](NC(=O)[C@@H](N)CCC(=O)O)[C@@H](C)O)C(=O)N[C@@H](Cc2ccccc2)C(=O)N[C@@H](Cc2c[nH]c3ccccc23)C(=O)N[C@@H](CCCCN)C(=O)N[C@@H](Cc2ccc(O)cc2)C(=O)N1)C(=O)O [HUMAN UROTENSIN II]	–	5.01 nM	–
CC(C)[C@H](NC(=O)[C@@H]1CSSC(C)(C)[C@H](NC(=O)[C@@H](N)CCCCN)C(=O)N[C@@H](Cc2ccccc2)C(=O)N[C@H](Cc2c[nH]c3ccccc23)C(=O)N[C@@H](CCCN)C(=O)N[C@@H](Cc2ccc(O)cc2)C(=O)N1)C(=O)O	–	–	219 nM
CC(C)[C@H](NC(=O)[C@@H]1CSSC(C)(C)[C@H](NC(=O)[C@@H](N)Cc2ccc([N+](=O)[O-])cc2)C(=O)N[C@@H](Cc2ccccc2)C(=O)N[C@@H](Cc2c[nH]c3ccccc23)C(=O)N[C@@H](CCCCN)C(=O)N[C@@H](Cc2ccc(O)cc2)C(=O)N1)C(=O)O (H-[Phe(4-NO2)][Pen]FWKYCV-OH; disulfide 2-7)	–	72.4 nM	13.5 nM
CC(C)[C@H](NC(=O)[C@@H]1CSSC(C)(C)[C@H](NC(=O)[C@@H](N)CC(=O)O)C(=O)N[C@@H](Cc2ccccc2)C(=O)N[C@@H](Cc2c[nH]c3ccccc23)C(=O)N[C@@H](CCCCN)C(=O)N[C@@H](Cc2ccc(O)cc2)C(=O)N1)C(=O)O (H-D[Pen]FWKYCV-OH; disulfide 2-7)	–	0.251 nM	–
CC(C)[C@H](NC(=O)[C@@H]1CSSC(C)(C)[C@H](NC(=O)[C@@H](N)Cc2cccc3ccccc23)C(=O)N[C@@H](Cc2ccccc2)C(=O)N[C@@H](Cc2c[nH]c3ccccc23)C(=O)N[C@@H](CCCCN)C(=O)N[C@@H](Cc2ccc(O)cc2)C(=O)N1)C(=O)O (H-[1Nal][Pen]FWKYCV-OH; disulfide 2-7)	–	102 nM	26.3 nM
CC(C)[C@H](NC(=O)[C@@H]1CSSC(C)(C)[C@H](NC(=O)[C@@H](N)Cc2ccc3ccccc3c2)C(=O)N[C@@H](Cc2ccccc2)C(=O)N[C@H](Cc2c[nH]c3ccccc23)C(=O)N[C@@H](CCCN)C(=O)N[C@@H](Cc2ccc(O)cc2)C(=O)N1)C(=O)O	–	–	11.7 nM
